Test results published in US20130165635A1 (priority 2010, published 2013).
Numbered stars: 1 amine (or outer) side, 2 acyl side, 3 side chain; on linkers, the order of the positions; unused ones are H or OH. Bridge positions count the residues as written; N and C are the ends. Square brackets hold non-standard residues; d marks the D form. Peptide text beside a SMILES is read from it. X1 = CC(C)CCCCCCCCC[C@H](CC(=O)[*:1])O[*:2]

Columns and labels:
Type in all cases: cell-based
[1] = test system: Fusarium oxysporum
[2] = test system: Magnaporthe grisea; details: 1.56 to 12.56 μg/mL, 100 μL in cup, 25° C. for 1 to 3 days
[3] = test system: Trichophyton mentagrophytes

In the case of `CC(C)CCCCCCCCC[C@@H]1CC(=O)N[C@@H](CCC(=O)O)C(=O)N[C@@H](CC(C)C)C(=O)N[C@H](CC(C)C)C(=O)N[C@@H](C(C)C)C(=O)N[C@@H](CC(=O)O)C(=O)N[C@H](CC(C)C)C(=O)N[C@@H](CC(C)C)C(=O)O1` [surfactin] (EL[dL]VD[dL]L; linker N-C via X1), the “antifungal activity (growth inhibition of test microorganism)” value [1] is reported as “did not show antifungal activity” and the “antifungal activity (growth inhibition of test microorganism)” value [2] is reported as “weaker than iturin A, but slight inhibitory activities”.

In the case of iturin A, the “antifungal activity (growth inhibition of test microorganism)” value [1] is reported as “strong antifungal activity”, the “antifungal activity (growth inhibition of test microorganism)” value [2] is reported as “strong antifungal activities” and the “antifungal activity (growth inhibition of test microorganism)” value [3] is reported as “strong antifungal activities”.
